Here are results for 13 compounds from ChEMBL document CHEMBL2203026.

A value given as a limit tells only on which side of the number the result lay.

For data set [1], the target named is T1, Metabotropic glutamate receptor 3 (Homo sapiens, UniProt Q14832). Briefly: Negative allosteric modulation of mGlu3 assessed as thallium flux through GIRK channels by cell-based assay.
Target sequence in this assay (Q14832 whole entry): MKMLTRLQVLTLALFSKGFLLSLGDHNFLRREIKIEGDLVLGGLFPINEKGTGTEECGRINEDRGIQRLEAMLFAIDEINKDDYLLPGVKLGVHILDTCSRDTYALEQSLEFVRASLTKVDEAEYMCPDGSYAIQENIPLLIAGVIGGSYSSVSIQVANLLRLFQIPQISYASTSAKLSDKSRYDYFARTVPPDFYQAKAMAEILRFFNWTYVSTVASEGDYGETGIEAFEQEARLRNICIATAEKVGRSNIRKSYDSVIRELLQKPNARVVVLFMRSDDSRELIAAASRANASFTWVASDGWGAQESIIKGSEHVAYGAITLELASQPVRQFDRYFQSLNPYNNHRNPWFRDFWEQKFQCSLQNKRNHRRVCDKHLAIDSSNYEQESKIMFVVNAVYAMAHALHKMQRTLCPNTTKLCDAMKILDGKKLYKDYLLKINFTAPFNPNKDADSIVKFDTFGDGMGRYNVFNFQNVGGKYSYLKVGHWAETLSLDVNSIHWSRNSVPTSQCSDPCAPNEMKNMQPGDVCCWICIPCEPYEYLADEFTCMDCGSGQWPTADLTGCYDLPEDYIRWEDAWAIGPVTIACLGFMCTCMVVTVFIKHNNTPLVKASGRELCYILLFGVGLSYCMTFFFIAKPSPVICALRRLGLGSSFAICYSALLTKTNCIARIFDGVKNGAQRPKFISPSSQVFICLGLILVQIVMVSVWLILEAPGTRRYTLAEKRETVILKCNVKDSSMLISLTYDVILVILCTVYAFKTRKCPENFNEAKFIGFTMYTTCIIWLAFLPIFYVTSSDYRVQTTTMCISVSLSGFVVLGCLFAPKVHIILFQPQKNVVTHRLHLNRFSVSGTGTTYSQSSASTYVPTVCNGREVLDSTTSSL
Data set [2] deals with T1, Metabotropic glutamate receptor 3. Briefly: Negative allosteric modulation of mGlu3 assessed as inhibition of glutamate-induced thallium flux through GIRK channels by cell-based assay. On the set-up: concentration or dose not given beside the values. Particulars: concentration not given here.
Target sequence in this assay (Q14832 23-879 limits assumed): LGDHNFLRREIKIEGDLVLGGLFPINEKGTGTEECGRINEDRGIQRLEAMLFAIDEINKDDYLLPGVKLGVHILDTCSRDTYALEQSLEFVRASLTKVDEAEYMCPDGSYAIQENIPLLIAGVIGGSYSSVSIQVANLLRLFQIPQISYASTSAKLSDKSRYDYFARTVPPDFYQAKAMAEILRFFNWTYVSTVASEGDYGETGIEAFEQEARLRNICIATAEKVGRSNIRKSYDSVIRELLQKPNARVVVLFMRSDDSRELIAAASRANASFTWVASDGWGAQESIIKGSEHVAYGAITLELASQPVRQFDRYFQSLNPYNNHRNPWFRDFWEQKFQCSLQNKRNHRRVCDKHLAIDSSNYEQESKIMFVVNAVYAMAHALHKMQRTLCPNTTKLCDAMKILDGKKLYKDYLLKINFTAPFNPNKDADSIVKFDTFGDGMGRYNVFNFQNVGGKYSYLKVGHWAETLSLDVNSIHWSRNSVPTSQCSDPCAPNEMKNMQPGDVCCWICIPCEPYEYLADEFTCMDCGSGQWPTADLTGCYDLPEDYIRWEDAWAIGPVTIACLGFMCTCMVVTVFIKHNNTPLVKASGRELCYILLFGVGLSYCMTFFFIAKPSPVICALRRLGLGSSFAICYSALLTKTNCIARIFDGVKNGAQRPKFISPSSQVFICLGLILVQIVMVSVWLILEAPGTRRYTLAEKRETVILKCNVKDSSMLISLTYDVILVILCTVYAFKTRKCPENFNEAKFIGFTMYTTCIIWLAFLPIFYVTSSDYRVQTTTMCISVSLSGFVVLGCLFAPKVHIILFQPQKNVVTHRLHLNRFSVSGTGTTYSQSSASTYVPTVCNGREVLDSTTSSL
Data set [3] deals with T2, Metabotropic glutamate receptor 2 (Homo sapiens, UniProt Q14416). Briefly: Negative allosteric modulation of mGlu2 by cell-based assay.
Data set [4] addresses T1, Metabotropic glutamate receptor 3. Briefly: Negative allosteric modulation of mGlu3 by cell-based assay.
Target sequence in this assay (Q14832 whole entry): as the sequence (Q14832 whole entry) above
In data set [5] the target is T2, Metabotropic glutamate receptor 2. Briefly: Negative allosteric modulation of human mGlu2 expressed in AV-12 cells in presence of glutamate EC90 concentration by FLIPR assay. It is filed as cell-based, AV12.
The target in data set [6] is T1, Metabotropic glutamate receptor 3. Briefly: Negative allosteric modulation of human mGlu3 expressed in AV-12 cells in presence of glutamate EC90 concentration by FLIPR assay. The data set is classed as cell-based, AV12.
Target sequence in this assay (Q14832 whole entry): as above
The target in data set [7] is T2, Metabotropic glutamate receptor 2. Briefly: Negative allosteric modulation of mGlu2 assessed as thallium flux through GIRK channels by cell-based assay.
Data set [8] can be described thus: Selectivity index, ratio IC50 for mGlu2 to IC50 for mGlu3.
Data set [9] has as its target Metabotropic glutamate receptor 3 (Rattus norvegicus, UniProt P31422). Briefly: Negative allosteric modulation of rat mGlu3 assessed as assessed as thallium flux through GIRK channels by cell-based assay.
Data set [10] concerns the target T3, Metabotropic glutamate receptor 5 (Rattus norvegicus, UniProt P31424). Briefly: Positive allosteric modulation of rat mGlu5 expressed in HEK293 cells in presence of glutamate EC20 concentration by Fluo-2AM dye based fluorescence analysis. The data set is classed as cell-based.
Target sequence in this assay (P31424 whole entry): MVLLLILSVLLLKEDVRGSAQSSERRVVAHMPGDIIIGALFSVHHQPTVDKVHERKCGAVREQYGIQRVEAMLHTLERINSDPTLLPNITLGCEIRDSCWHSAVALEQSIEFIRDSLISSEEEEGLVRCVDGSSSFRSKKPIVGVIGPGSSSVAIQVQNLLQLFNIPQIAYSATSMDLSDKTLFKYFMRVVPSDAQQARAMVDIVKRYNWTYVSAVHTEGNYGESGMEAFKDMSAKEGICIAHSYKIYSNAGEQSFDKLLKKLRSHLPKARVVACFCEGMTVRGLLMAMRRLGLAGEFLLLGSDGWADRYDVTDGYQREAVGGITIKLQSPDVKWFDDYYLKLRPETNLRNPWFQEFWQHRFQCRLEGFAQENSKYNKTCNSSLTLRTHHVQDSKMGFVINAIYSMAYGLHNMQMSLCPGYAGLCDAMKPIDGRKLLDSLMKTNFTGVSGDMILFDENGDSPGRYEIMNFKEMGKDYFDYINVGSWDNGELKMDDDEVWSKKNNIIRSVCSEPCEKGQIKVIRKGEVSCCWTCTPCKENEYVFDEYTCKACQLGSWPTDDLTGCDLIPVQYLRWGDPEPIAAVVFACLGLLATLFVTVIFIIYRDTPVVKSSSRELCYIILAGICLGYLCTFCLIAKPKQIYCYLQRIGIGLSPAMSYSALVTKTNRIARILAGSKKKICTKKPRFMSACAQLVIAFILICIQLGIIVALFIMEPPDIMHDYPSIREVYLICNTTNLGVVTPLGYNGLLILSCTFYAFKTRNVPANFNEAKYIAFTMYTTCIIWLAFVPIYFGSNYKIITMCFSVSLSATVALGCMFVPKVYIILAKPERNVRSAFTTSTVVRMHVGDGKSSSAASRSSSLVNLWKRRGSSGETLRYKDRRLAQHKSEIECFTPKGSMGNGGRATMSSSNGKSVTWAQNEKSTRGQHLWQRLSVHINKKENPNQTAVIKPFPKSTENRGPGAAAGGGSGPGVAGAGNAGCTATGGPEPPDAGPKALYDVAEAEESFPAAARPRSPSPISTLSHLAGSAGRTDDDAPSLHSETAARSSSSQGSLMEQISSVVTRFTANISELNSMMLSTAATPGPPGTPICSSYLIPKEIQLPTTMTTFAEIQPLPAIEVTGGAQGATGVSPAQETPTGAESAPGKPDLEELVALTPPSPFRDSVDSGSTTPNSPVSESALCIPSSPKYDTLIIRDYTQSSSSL
Data set [11] deals with T1, Metabotropic glutamate receptor 3. Briefly: Negative allosteric modulation of mGlu3 assessed as inhibition of glutamate-induced calcium mobilization in presence of Galpha15 by cell based assay. The data set is classed as functional. For orientation: A change in cytosolic calcium serves as a functional read-out for many receptors and channels.
Target sequence in this assay (Q14832 whole entry): as the sequence (Q14832 whole entry) above
For a further data set, the target named is Cytochrome P450 2C9 (Homo sapiens, UniProt P11712). Briefly: Inhibition of CYP2C9 in human liver microsomes. The data set is classed as ADME, Microsome. (Liver microsomes are a subcellular fraction often used to study metabolism.)
The next data set deals with Cytochrome P450 2D6 (Homo sapiens, UniProt P10635). Briefly: Inhibition of CYP2D6 in human liver microsomes. The data set is classed as ADME, Microsome.
Data set [12] can be described thus: Fraction unbound in rat plasma. It is filed as ADME, cell-free.
For data set [13], the target named is T3, Metabotropic glutamate receptor 5. Briefly: Negative allosteric modulation of mGlu5 assessed as inhibition of glutamate-induced calcium mobilization by cell based assay. The data set is classed as functional.
Target sequence in this assay (P31424 whole entry, looked up): as the sequence (P31424 whole entry) above
Data set [14] in a line: Half life in rat at 1 mg/kg, iv. The note with it: in vivo. The data set is classed as ADME, organism-based. Set-up: dose 1 mg/kg, route intravenous.
The subject of another data set is Brain. Briefly: Drug level in rat brain at 10 mg/kg. Particulars: in vivo, read-out: Drug uptake. It is filed as ADME, organism-based. On the set-up: dose 10 mg/kg.
Another data set has as its system Nucleic Acid. Briefly: Ratio of drug level in brain to plasma of rat at 10 mg/kg. Set-up: dose 10 mg/kg. It is filed as ADME, organism-based.
Data set [15] in a line: Fraction unbound in human plasma. It is filed as ADME, cell-free.
Data set [16] can be described thus: Volume of distribution at steady-state concentration in rat at 1 mg/kg, iv. It is filed as ADME, organism-based. Particulars: in vivo, read-out: Vdss. On the set-up: dose 1 mg/kg, route intravenous.
The target of the next data set is Cytochrome P450 3A4 (Homo sapiens, UniProt P08684). Briefly: Inhibition of CYP3A4 in human liver microsomes. It is filed as ADME, Microsome.
Data set [17] in a line: Drug metabolism in rat liver microsome assessed as CYP450-mediated (R)-(3-(hydroxymethyl)piperidin-1-yl)(4-((4-hydroxyphenyl)ethynyl)phenyl)methanone formation. Particulars: microsomes. The data set is classed as ADME.
Data set [18] deals with T3, Metabotropic glutamate receptor 5. Briefly: Positive allosteric modulation of mGlu5 assessed as potentiation of glutamate-induced calcium mobilization by cell based assay. It is filed as functional.
Target sequence in this assay (P31424 whole entry, looked up): as the sequence (P31424 whole entry) above
A short description of data set [19]: Clearance in rat at 1 mg/kg, iv. The data set is classed as ADME, organism-based. On the set-up: dose 1 mg/kg, route intravenous. Particulars: in vivo.
For another data set, the system named is Plasma. Briefly: Plasma concentration in rat at 10 mg/kg. Particulars: in vivo. It is filed as ADME, organism-based. Set-up: dose 10 mg/kg.
In a further data set the target is T4, Cytochrome P450 1A2 (Homo sapiens, UniProt P05177).
T4 sequence (P05177 whole entry): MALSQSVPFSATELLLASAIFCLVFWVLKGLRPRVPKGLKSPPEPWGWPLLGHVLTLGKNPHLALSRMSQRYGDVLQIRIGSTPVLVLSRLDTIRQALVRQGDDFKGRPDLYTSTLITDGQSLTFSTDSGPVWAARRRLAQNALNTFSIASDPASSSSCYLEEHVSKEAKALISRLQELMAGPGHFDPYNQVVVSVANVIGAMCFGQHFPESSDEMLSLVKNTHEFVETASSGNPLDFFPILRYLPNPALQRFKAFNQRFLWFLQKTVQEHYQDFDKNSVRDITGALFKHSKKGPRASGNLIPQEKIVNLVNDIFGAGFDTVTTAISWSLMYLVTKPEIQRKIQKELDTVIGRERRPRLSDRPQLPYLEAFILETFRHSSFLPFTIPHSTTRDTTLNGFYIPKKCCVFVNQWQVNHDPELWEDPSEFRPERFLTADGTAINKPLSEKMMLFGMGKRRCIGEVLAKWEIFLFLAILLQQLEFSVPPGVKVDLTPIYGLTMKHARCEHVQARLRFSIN
Briefly: Inhibition of CYP1A2 in human liver microsomes. The data set is classed as ADME, Microsome.

Data set [20] in a line: Drug metabolism in human liver microsome assessed as CYP450-mediated (R)-(3-(hydroxymethyl)piperidin-1-yl)(4-((4-hydroxyphenyl)ethynyl)phenyl)methanone formation. It is filed as ADME. The note with it: microsomes.

T2 sequence (Q14416 whole entry): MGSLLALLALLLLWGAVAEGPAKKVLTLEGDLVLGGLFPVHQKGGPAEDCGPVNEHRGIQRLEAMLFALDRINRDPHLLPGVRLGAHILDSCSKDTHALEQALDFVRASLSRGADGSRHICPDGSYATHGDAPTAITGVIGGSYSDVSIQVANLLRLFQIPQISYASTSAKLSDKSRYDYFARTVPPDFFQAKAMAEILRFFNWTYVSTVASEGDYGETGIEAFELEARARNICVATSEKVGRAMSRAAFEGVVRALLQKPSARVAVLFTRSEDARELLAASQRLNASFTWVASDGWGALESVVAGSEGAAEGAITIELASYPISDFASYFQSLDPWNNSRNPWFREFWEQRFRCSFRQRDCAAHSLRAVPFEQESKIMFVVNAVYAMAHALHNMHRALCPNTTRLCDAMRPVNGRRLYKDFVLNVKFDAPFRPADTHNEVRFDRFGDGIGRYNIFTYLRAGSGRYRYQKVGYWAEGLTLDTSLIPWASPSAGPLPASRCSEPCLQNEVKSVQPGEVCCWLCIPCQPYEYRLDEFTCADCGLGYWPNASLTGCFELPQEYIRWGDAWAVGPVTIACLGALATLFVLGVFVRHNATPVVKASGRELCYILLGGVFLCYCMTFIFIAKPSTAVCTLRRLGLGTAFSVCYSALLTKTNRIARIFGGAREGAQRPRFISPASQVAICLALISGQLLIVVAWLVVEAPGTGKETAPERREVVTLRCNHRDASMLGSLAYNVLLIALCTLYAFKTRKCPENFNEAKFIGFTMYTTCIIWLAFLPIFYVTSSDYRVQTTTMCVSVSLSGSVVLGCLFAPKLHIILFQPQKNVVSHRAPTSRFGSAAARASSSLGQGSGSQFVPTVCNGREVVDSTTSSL
Sequence of Cytochrome P450 2C9 (P11712 whole entry): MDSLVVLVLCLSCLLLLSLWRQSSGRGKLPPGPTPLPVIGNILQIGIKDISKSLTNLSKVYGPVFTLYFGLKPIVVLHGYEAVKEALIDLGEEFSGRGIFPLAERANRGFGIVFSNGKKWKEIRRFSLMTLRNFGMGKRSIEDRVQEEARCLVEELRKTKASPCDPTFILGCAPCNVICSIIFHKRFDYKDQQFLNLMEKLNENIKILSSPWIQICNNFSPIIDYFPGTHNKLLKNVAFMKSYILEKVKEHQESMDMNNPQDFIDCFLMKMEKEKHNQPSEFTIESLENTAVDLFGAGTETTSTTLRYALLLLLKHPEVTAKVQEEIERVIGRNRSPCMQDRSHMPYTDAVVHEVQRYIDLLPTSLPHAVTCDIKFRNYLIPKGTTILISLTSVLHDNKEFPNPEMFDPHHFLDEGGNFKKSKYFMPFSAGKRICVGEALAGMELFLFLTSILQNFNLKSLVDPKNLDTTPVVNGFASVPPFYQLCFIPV
Sequence of Cytochrome P450 2D6 (P10635 whole entry): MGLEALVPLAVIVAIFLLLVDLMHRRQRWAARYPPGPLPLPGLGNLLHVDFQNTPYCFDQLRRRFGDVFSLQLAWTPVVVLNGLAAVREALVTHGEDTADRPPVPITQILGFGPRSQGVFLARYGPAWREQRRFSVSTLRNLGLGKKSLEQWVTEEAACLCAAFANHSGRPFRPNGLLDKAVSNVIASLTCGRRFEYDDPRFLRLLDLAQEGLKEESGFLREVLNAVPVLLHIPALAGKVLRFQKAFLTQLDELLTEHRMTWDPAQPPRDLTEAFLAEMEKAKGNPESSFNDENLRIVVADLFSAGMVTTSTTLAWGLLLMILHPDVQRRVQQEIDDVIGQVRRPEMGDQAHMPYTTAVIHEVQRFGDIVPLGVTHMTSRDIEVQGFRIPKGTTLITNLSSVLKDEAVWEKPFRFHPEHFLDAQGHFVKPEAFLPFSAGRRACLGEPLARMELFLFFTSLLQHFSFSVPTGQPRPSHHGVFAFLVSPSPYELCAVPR

As a reminder, the inhibition is the change of the read-out against control, counted positive when it falls. For the compound `COc1ccc(C#Cc2ccc(C(=O)N3CCC(C)(O)CC3)cc2)cc1`, in data set [1] (read-out: IC50), the IC50 stood at 5 µM. For the same compound, the inhibition in data set [2] was 4.4%.
For `Cc1cc(-c2cccc(C3=Nc4cc(C)c(C(F)(F)F)cc4NC(=O)C3)c2)cc(C)n1`, the results for the IC50 in data set [3] and in data set [4] were 0.296 µM and 0.27 µM, respectively.
For `Clc1ccc(CN[C@H]2CCN(c3ncc(Br)cn3)C2)c(Cl)c1`, the IC50 in data set [5] was above 12.5 µM; in data set [6] it was 0.19 µM; in data set [1] (read-out: IC50), 4.2 µM; in data set [7], 17 µM. The Ratio IC50 in data set [8] stood at 4.
As to `CCN1CCC[C@H]1CC(=O)c1ccc(C#Cc2ccc(OC)cc2)cc1`, the IC50 in data set [1] (read-out: IC50) was above 10 µM. Also, in data set [2], the inhibition stood at 9.6%.
Turning to `COc1ccc(C#Cc2ccc(C(=O)N3CCC(O)CC3)cc2)cc1`, in data set [1] (read-out: IC50), the IC50 was determined as 3.8 µM. Further, the inhibition in data set [2] turned out to be 10.4%.
The matching figures for `COc1ccc(C#Cc2ccc(C(=O)N3CCN(C(C)C)CC3)cc2)cc1`: above 10 µM and 7.6%.
As a reminder, the EC50 is the concentration giving half of the maximal effect. `O=C(c1ccc(C#Cc2ccccc2)cc1)N1CCC(O)CC1`: the IC50 in [9] was above 10 µM. Besides, the EC50 in data set [10] turned out to be 0.27 µM.
As a reminder, the fraction unbound is the share of the substance not bound to proteins or other matrix. A word on the half-life: it is the time needed for the level to fall by half in the phase considered. As usually defined, the clearance is the volume of plasma or blood freed of the substance per unit of time. For the compound `COc1ccc(C#Cc2ccc(C(=O)N3CCC[C@@H](CO)C3)cc2)cc1`, the IC50 is 0.66 µM in [11]; above 30 µM at Cytochrome P450 2C9; above 30 µM at Cytochrome P450 2D6; above 10 µM in data set [13]; above 10 µM in data set [3]; above 30 µM at Cytochrome P450 3A4. Also, the IC50 in data set [1] (read-out: IC50) was 1.5 µM; at Cytochrome P450 1A2 it was above 30 µM. Also, the values for the fraction unbound in data set [12] and in data set [15] were 0.01 and 0.02, respectively. For the same compound, the half-life in data set [14] was found to be 16.8 min. In addition, the concentration was 16.3 µM in the data set with Brain and 9.7 µM in the data set on Plasma. The BPR with Nucleic Acid turned out to be 1.67. The Vd in [16] worked out at 0.6 L/kg. Also, the Drug metabolism entry in data set [17] and in data set [20] was “Active” in each case. Also, the EC50 in data set [18] is above 10 µM. In [19], the clearance amounted to 1.98 L/h/kg. The inhibition in [2] was -4.4%. In data set [8], the Ratio IC50 came out at 15.
With `COc1ccc(C#Cc2ccc(C(=O)N3CCCC(CO)C3)cc2)cc1` (racemic), the IC50 in [1] (read-out: IC50) was 2.1 µM. Further, the inhibition in data set [2] amounted to 0.5%.
Take `COc1ccc(C#Cc2ccc(C(=O)N3CCC[C@H](CO)C3)cc2)cc1`: the IC50 in data set [3] is above 10 µM; in data set [1] (read-out: pIC50 (converted)), 3.24 µM. In addition, in data set [2], the inhibition was -1.7%.
For the compound `COc1ccc(C#Cc2ccc(C(=O)N3CCC[C@H](C(=O)O)C3)cc2)cc1`, the IC50 in [1] (read-out: IC50) worked out at 5.7 µM. For the same compound, the inhibition in [2] amounted to 2.2%.
The matching figures for `COc1ccc(C#Cc2ccc(C(=O)N3CCC[C@@H](C(=O)O)C3)cc2)cc1`: above 10 µM and 16.4%.
The matching figures for `COc1ccc(C#Cc2ccc(C(=O)N3CCCC(O)C3)cc2)cc1` (centres undefined): 2.5 µM and -1.1%.
